Key:
[1] = system: transformed PSC (human pancreatic stellate cells); test: PSC proliferation, AlamarBlue Cell Viability Assay; assay type: cell-based; settings: for Inhibitory Effect (%) on PSC proliferation / inhibition at 10 µM: 10 μM; for Inhibitory Effect (%) on PSC proliferation / inhibition at 5 µM / inhibition at 10 µM / inhibition at 20 µM: mean of at least three independent experiments, NE = No effect; for inhibition at 5 µM / inhibition at 10 µM / inhibition at 20 µM: Homo sapiens, read-out: Inhibitory Effect (%) on PSC proliferation; for Antiproliferative effect on PSC, result in words: transformed PSC, AlamarBlue
Protocol: The calculated lipophilicity (cLogP) and topological polar surface area (tPSA) values of synthesized analogues are listed in Table 1. […] AlamarBlue is a non-toxic reagent that is converted to a highly fluorescent end product by viable cells.
Under an IRB-approved tissue protocol, discarded human resected pancreatic tissue (500 mm^3) was attained fresh from the operating room at the University of Texas Medical Branch. The tissue was minced and plated on a collagen-coated flask (15 μg/mL, Invitrogen) with DMEM (VWR; Radnor, Pa.) supplemented with penicillin 200 U/mL, streptomycin 200 μg/mL, amphotericin B 0.25 μg/mL and gentimicin 50 μg/mL (Invitrogen, Carlsbad Calif.), 10% fetal bovine serum (Lonza, Walkersville, Md.), 1% insulin-transferrin, selenium-ethanolamine (Gibco, Grand Island, N.Y.), and 1% non-essential amino acids (Sigma-Aldrich, St. Louis, Mo.). The human PSC were isolated by the outgrowth method.^41-43 The purity of PSC culture was confirmed by immunohistochemical staining for vimentin, α-smooth muscle actin, glial fibrillar acidic protein, or Oil red O staining. Primary PSC were transformed and immortalized for use in experiments using lentiviral vectors containing SV40 Large T antigen and human telomerase (plasmid #12245 and 12246; Addgene, Cambridge, Mass.). Cultures were maintained in DMEM with 10% FBS, at 37° C. in a humidified 95% O2/5% CO2 atmosphere.
Cell proliferation assay. Transformed PSC (3×10^3) were plated in 96-well plates, in sextuplicate. […] AlamarBlue reagent (10% sample volume, DAL1025) was added to each well per Invitrogen's protocol. Fluorescence was recorded using excitation/emission wavelengths of 544/590 nm and the SpectraMax M2 Microplate Reader (Molecular Devices, Sunnyvale Calif.).
Statistical analysis. Dose-response curves were generated by plotting fluorescence or absorbance versus log (compound concentration). A best-fit curve was created using nonlinear regression, and the IC50 or EC50 determined from the graph (GraphPad Prism 5; GraphPad Software Inc., La Jolla, Calif.). To analyze continuos variables, unpaired student t-tests and one-way ANOVA with Tukey-Kramer multiple comparisons post-test (GraphPad Prism 5). Significance was set at p<0.05.

[2] = Aqueous solubility by HPLC analysis method; assay type: physicochemical; settings: in the form of HCl salt
[3] = biological target: T1, human CBS (cystathionine-β-synthase) (Homo sapiens, UniProt P35520); test: H2S production by recombinant CBS; assay type: biochemical; settings: 100 μM compound; H2S production as % of control (100%)
T1 construct: GST (N); made in house; host or cells: E. coli BL21(DE3) Codon Plus
T1 sequence (P35520 1-551): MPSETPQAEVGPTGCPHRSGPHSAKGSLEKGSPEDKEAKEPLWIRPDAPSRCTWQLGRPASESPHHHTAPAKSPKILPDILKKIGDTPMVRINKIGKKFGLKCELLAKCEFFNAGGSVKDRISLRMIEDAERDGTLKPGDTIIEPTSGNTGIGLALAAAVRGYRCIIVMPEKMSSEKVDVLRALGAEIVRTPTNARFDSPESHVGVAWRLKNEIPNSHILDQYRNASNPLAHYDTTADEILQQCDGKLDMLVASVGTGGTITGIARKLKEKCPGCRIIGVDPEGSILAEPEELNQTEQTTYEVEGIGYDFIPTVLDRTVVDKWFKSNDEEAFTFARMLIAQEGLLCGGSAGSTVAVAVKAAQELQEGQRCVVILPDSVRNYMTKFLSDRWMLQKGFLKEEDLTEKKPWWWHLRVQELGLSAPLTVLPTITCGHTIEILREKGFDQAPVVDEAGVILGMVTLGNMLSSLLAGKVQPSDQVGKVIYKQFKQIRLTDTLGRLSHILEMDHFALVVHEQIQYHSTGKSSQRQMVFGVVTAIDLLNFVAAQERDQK
Protocol: Recombinant human CBS protein expression and purification. The expression and purification of human CBS was performed as described previously (Asimakopoulou et al. 2013, Br J Pharmacol. 169(4):922-32). Briefly, E. Coli BL21(DE3) Codon Plus cells (Stratagene, La Jolla, Calif., USA) containing the expression vector pGEX-Kg/GST-CBS were grown at 37° C. and 180 rpm in LuriaBertani (LB) broth medium containing 100 μg/ml ampicillin to an absorption of 0.6-0.8 at 600 nm. Protein expression was induced by addition of 0.1 mM IPTG (isopropyl-b-D-thiogalactopyranoside) and cells were further incubated at 30° C. overnight. The bacteria were harvested and sonicated in lysis buffer PBS (140 mM NaCl, 2.7 mM KCl, 10 mM Na2HPO4, 1.8 mM KH2PO4, pH 7.8) containing a protease inhibitors cocktail (Sigma). The protein lysate was loaded onto a GSTrap FF 1 ml affinity column (Amersham Biosciences) and the GST-CBS recombinant protein was eluted with the elution buffer (50 mM Tris-HCl, 10 mM reduced glutathione, pH 8.0) and then dialyzed and concentrated in 10 mM sodium phosphate buffer (pH 8.2) and DTT (1 mM).
Measurement of H2S production by recombinant CBS. The measurement of H2S production by recombinant CBS enzyme was performed as described (Asimakopoulou et al. 2013, Br J Pharmacol. 169(4):922-32). Briefly, each test consisted of a 100 μl reaction mixture in 50 mM sodium phosphate buffer pH 8.2 containing 1 μg of the purified human CBS enzyme, 0.01 mM pyridoxal-5′-phosphate (PLP), 10 mM L-cysteine and 0.5 mM homocysteine. […] The reaction was initiated by transferring the Eppendorf tubes from ice to a 37° C. shaking water bath. After 60 minutes of incubation at 37° C., the reaction was terminated by adding 1% ZnAc followed by 10% trichloroacetic acid. Subsequently, N,N-dimethylphenylendiamine sulfate (20 mM in 7.2 M HCl) and FeCl3 (30 mM in 1.2 M HCl) were added and the optical absorbance of the solutions was measured at 650 nm.

Row | Structure (SMILES) | Inhibitory Effect (%) on PSC proliferation [1] | inhibition at 5 µM [1] | inhibition at 10 µM [1] | inhibition at 20 µM [1] | Antiproliferative effect on PSC, result in words [1] | Aqueous solubility compared with apigenin, result in words [2] | Aqueous solubility, saturated concentration [2] | activity at 100 µM [3] | melting point
1 | COc1cc(OC)c2c(=O)cc(-c3ccc(OCCN4CCCCC4)cc3)oc2c1 [Compound 14, 5,7-Dimethoxy-2-(4-(2-piperidin-1-yl-ethoxy)phenyl)-chromen-4-one] | 64% | 45% | 64% | 97% | potent antiproliferative effects | significantly improved solubility | 17.4 mg/mL | 129% | 79 to 80 °C
2 | COc1cc(OC)c2c(=O)cc(-c3ccc(OCCN4CCCC4)cc3)oc2c1 [Compound 16, 5,7-Dimethoxy-2-(4-(2-pyrrolidin-1-yl-ethoxy)phenyl)-chromen-4-one] | 66% | 48% | 66% | 98% | potent antiproliferative effects | significantly improved solubility | 13.7 mg/mL | 131% | 114 to 115 °C
3 | COc1cc(OC)c2c(=O)cc(-c3ccc(OCC(O)CN(C)C)cc3)oc2c1 (stereo not drawn) [Compound 26, 2-(4-(3-Dimethylamino-2-hydroxypropoxy)-phenyl)-5,7-dimethoxy-chromen-4-one] |  | 42% | 60% | 71% |  |  |  | 117% | 92 to 93 °C
4 | COc1cc(OC)c2c(=O)cc(-c3ccc(OC4CCNCC4)cc3)oc2c1 [Compound 19, 5,7-Dimethoxy-2-(4-(piperidin-4-yloxy)-phenyl)-chromen-4-one] |  |  | 21% |  |  |  |  | 115% | 205 to 206 °C
5 | COc1cc(OC)c2c(=O)cc(-c3ccc(NCCN4CCCC4)cc3)oc2c1 [Compound 37] |  | 21% | 51% | 80% |  |  |  | 109% | 148 to 149 °C
6 | COc1cc(OC)c2c(=O)cc(-c3ccc(NCCN(C)C)cc3)oc2c1 [Compound 36, 2-(4-(2-Dimethylaminoethylamino)phenyl)-5,7-dimethoxy-chromen-4-one] |  | 30% | 60% | 84% |  |  |  | 112% | 159 to 160 °C
7 | COc1cc(OC)c2c(=O)cc(-c3ccc(OCC(O)CN4CCCC4)cc3)oc2c1 (stereo not drawn) [Compound 25, 2-(4-(2-Hydroxy-3-pyrrolidin-1-yl-propoxy)phenyl)-5,7-dimethoxy-chromen-4-one] |  | 21% | 37% | 57% |  |  |  | 85.9% | 137 to 138 °C
8 | COc1cc(OC)c2c(=O)cc(-c3ccc(OCCF)cc3)oc2c1 [Compound 8, 2-(4-(2-Fluoroethoxy)phenyl)-5,7-dimethoxy-chromen-4-one] |  |  |  | 21% | slightly increased antiproliferative effects in comparison with 6 |  |  | 127% | 187 to 188 °C

— patent publication US9868715B2 (THE BOARD OF REGENTS OF THE UNIVERSITY OF TEXAS SYSTEMS, priority 2014, dated 2018)
